Test results as given in ChEMBL document CHEMBL1201862, “PubChem BioAssay data set” (2004).
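Cells were grown in 96-well plates and exposed to each compound for 48 hours at five concentrations; endpoints were interpolated linearly between bracketing concentrations, or set to the highest concentration if not reached. GI50 is the concentration that inhibits growth by half.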 Active and inactive are the calls of the source. No stated cut-off is given here; in the data, active = GI50 up to about 1.1 µM and inactive = higher.

Tests used:
Assay in all cases: inhibition of tumour cell growth, NCI panel, 48 h
CAKI-1 = test system: CAKI-1
HL-60 = test system: HL-60
OVCAR-5 = test system: OVCAR-5
MDA-MB-231 = test system: MDA-MB-231
786-0 = test system: 786-0
Hs-578T = test system: Hs-578T
ACHN = test system: ACHN
SK-OV-3 = test system: SK-OV-3
MDA-N = test system: MDA-N
M14 = test system: M14
TK-10 = test system: TK-10
OVCAR-3 = test system: OVCAR-3
NCI/ADR-RES = test system: NCI/ADR-RES
SNB-75 = test system: SNB-75
SNB-19 = test system: SNB-19
KM12 = test system: KM12
MOLT-4 = test system: MOLT-4
UACC-62 = test system: UACC-62
K562 = test system: K562
A498 = test system: A498
SK-MEL-28 = test system: SK-MEL-28
NCI-H460 = test system: NCI-H460
NCI-H226 = test system: NCI-H226
EKVX = test system: EKVX
SR = test system: SR
BT-549 = test system: BT-549
HT-29 = test system: HT-29
SK-MEL-2 = test system: SK-MEL-2
MDA-MB-435 = test system: MDA-MB-435
IGROV-1 = test system: IGROV-1
CCRF-CEM = test system: CCRF-CEM
U-251 = test system: U-251
OVCAR-4 = test system: OVCAR-4
SN12C = test system: SN12C
RXF 393 = test system: RXF 393
RPMI-8226 = test system: RPMI-8226
SF-295 = test system: SF-295
Malme-3M = test system: Malme-3M
HOP-92 = test system: HOP-92
HOP-62 = test system: HOP-62
T47D = test system: T47D
HCC 2998 = test system: HCC 2998
A549 = test system: A549
DU-145 = test system: DU-145
SF-268 = test system: SF-268
HCT-116 = test system: HCT-116
SW-620 = test system: SW-620
UO-31 = test system: UO-31
NCI-H522 = test system: NCI-H522
UACC-257 = test system: UACC-257
PC-3 = test system: PC-3
HCT-15 = test system: HCT-15
MCF7 = test system: MCF7
LOX IMVI = test system: LOX IMVI
SK-MEL-5 = test system: SK-MEL-5
SF-539 = test system: SF-539
NCI-H23 = test system: NCI-H23
OVCAR-8 = test system: OVCAR-8
COLO 205 = test system: COLO 205

Measured: GI50

C=C1CC/C=C(\C)CCC[C@H](C)[C@@H](O)[C@@H]2OC(=O)C(=C)[C@@H]2C[C@H]1O
3.42 µM: HCT-15
inactive: CAKI-1 3.94 µM | HL-60 2.42 µM | OVCAR-5 17.3 µM | MDA-MB-231 14.9 µM | 786-0 3.8 µM | Hs-578T 7.91 µM | ACHN 2.73 µM | SK-OV-3 29.8 µM | MDA-N 8.47 µM | M14 4.75 µM | TK-10 1.49 µM | OVCAR-3 9.12 µM | NCI/ADR-RES 8.3 µM | SNB-75 12 µM | SNB-19 14.8 µM | KM12 15 µM | MOLT-4 2.13 µM | UACC-62 8.91 µM | K562 2.99 µM | A498 66.4 µM | SK-MEL-28 2.99 µM | NCI-H460 8.99 µM | NCI-H226 4.05 µM | EKVX 5.73 µM | SR 4.83 µM | HT-29 4.22 µM | SK-MEL-2 13.3 µM | MDA-MB-435 3.62 µM | IGROV-1 3.88 µM | CCRF-CEM 1.14 µM | U-251 18.1 µM | OVCAR-4 19.1 µM | SN12C 5.93 µM | RXF 393 4.25 µM | RPMI-8226 3.52 µM | SF-295 17.2 µM | Malme-3M 5.96 µM | HOP-92 1.18 µM | HOP-62 16 µM | T47D 8.24 µM | HCC 2998 18.4 µM | A549 17.1 µM | DU-145 4.57 µM | SF-268 8.26 µM | HCT-116 6.47 µM | SW-620 2.22 µM | UO-31 6.22 µM | NCI-H522 1.84 µM | UACC-257 9.77 µM | PC-3 10 µM | MCF7 4 µM | LOX IMVI 3.69 µM | SK-MEL-5 5.05 µM | SF-539 2.27 µM | NCI-H23 12.5 µM | OVCAR-8 4.71 µM | COLO 205 2.83 µM
active: BT-549 0.288 µM

CCOP(=O)(OCC)c1c(C(=O)OC)cc(=O)[nH]c1-c1ccc(C)cc1
9.73 µM: HCT-15
inactive: CAKI-1 5.46 µM | HL-60 1.23 µM | OVCAR-5 5.64 µM | MDA-MB-231 25.1 µM | 786-0 20.6 µM | Hs-578T 17.9 µM | ACHN 3.17 µM | SK-OV-3 22.8 µM | MDA-N 24.8 µM | M14 11.6 µM | TK-10 14.4 µM | OVCAR-3 11.1 µM | NCI/ADR-RES 19.5 µM | SNB-75 12.8 µM | SNB-19 21.6 µM | KM12 16 µM | MOLT-4 4.57 µM | UACC-62 7.01 µM | K562 10.4 µM | A498 22 µM | SK-MEL-28 18.5 µM | NCI-H460 19.1 µM | NCI-H226 9.31 µM | EKVX 3.73 µM | SR 3.03 µM | BT-549 7.71 µM | HT-29 14.4 µM | SK-MEL-2 15.7 µM | MDA-MB-435 18.5 µM | IGROV-1 6.43 µM | CCRF-CEM 2.02 µM | U-251 13.1 µM | OVCAR-4 8.2 µM | SN12C 22.4 µM | RXF 393 12.5 µM | RPMI-8226 5.27 µM | SF-295 19.8 µM | Malme-3M 6.1 µM | HOP-92 2.75 µM | HOP-62 18.5 µM | T47D 2.58 µM | HCC 2998 18.1 µM | A549 15.2 µM | DU-145 12.9 µM | SF-268 19.4 µM | HCT-116 13.8 µM | SW-620 5.75 µM | UO-31 4.05 µM | UACC-257 15.6 µM | PC-3 16.7 µM | MCF7 13.4 µM | LOX IMVI 17.7 µM | SK-MEL-5 13.3 µM | SF-539 7.87 µM | NCI-H23 16.9 µM | OVCAR-8 17.7 µM | COLO 205 6.5 µM
active: NCI-H522 0.968 µM
